Data as given in patent publication US20090215713A1, “Use of atp for the manufacture of a medicament for the prevention and treatment of oxidative stress and related conditions” (priority 2004, published 2009).

Tests used:
[1] = Side effects of intravenous ATP infusions; assay type: in vivo, human; details: over 60 home infusions in cancer patients
Method: For reasons of patients' safety, there has been no attempt to administer ATP outside a strict medical setting to date. In particular, WO 03/061568 (Rapaport) discloses the administration of ATP over a period of typically 8-10 hours in an outpatient setting within the hospital. […] Thus, both our data and US 2003/0109486 contradict the disclosure of WO 03/061568.
In order to determine the tolerance for ATP as well as the maximally tolerated dose of ATP, the first ATP infusion is preferably administered under medical supervision, usually in an in- or outpatient setting. Subsequent infusions can either be started at the hospital day care centre, at private homes, nursing homes, etc. according to a standardized protocol.

[2] = ATP infusions in a patient with rheumatoid arthritis; assay type: in vivo, human
Method: Patients with different diseases received infusions of 10-75 μg/kg·min over 8-24 h, at intervals of 1-4 weeks in different randomized clinical trials. In all cases, the first. infusion was given under clinical supervision, subsequent infusions were given in the setting of private homes. Preliminary results in small numbers of patients with persistent rheumatoid arthritis, chronic fatigue syndrome, and cancer in the pre-terminal stage, and lung cancer during curative radiotherapy are given below.
[…] […] DAS score had decreased from 5.80 to 3.09 and CRP had decreased from 43 to 6 mg/L.; all other blood values were normal. MD's conclusion: marked decease of disease activity.

TNF-α/IL-10 ratio = TNF-α/IL-10 ratio in whole blood incubated with H2O2 without LPS+PHA; assay type: cell-based, human; details: 300 μM ATP, 5 mM H2O2, no LPS+PHA
Method: FIG. 14 Effect of ATP on cytokine secretion in whole blood under conditions of oxidative stress. Blood was pre-incubated with ATP or no ATP (control) for 30 min, followed by incubation with H2O2 (5 mM) or 24 h, without addition of LPS+PHA. The TNF-α and IL-10 released into the supernatant was analyzed using the ELISA method. Results are expressed in percentage, 100% being the TNF-α/IL-10 ratio when blood was incubated with H2O2 only, but no ATP (control). The TNF-alpha/IL-10 ratio was reduced by ATP in a concentration-dependent manner, with a 90% reduction at 300 μM ATP, indicating inhibition of inflammatory response.
This experiment was performed to test the effects of ATP under circumstances of oxidative stress in healthy subjects, but without LPS-PHA induced stimulation of cytokine production. Whole blood was collected as described for experiment 2, and was pre-incubated with ATP at final concentrations of 100-300 μM, or no ATP (control), for 30 min. Then, blood was incubated with H2O2 (5 mM) or 24 h, without addition of LPS+PHA. and incubated for 24 hours with 5 mM H2O2 at 5% CO2 and 37° C. Cytokine production was measured as in Experiment 2. Results were expressed as the TNF-α/IL-10 ratio relative to the control condition (H2O2 without ATP).

IL-10 = assay: LPS+PHA-induced IL-10 secretion in whole blood from healthy subjects (ELISA); assay type: cell-based, human; details: indicated ATP concentrations, 24 h
Method: (§1) FIG. 8 Effect of ATP on LPS+PHA-induced IL-10 secretion in whole blood from healthy subjects. The whole blood was exposed to 10 μg/ml LPS and 1 μg/ml PHA with indicated concentrations of ATP for 24 h. The IL-10 released into the supernatants was analyzed using the ELISA method. Results are expressed in percentage, 100% being the IL-10 release under stimulation by LPS+PHA without ATP. […] Data are expressed as the mean values; error bars represent SEM. *, different from control (stimulation by LPS+PHA without ATP) (P<0.05).
(§2) Blood was collected from 8 healthy subjects in heparin containing vacutainer tubes. All incubations were performed in duplicate. ATP was dissolved in RPMI 1640 culture medium, at a final concentration of 1-300 μM, and blood pre-incubated with ATP at 5% CO2 at 37 DC for 30 min. After stimulation with LPS en PHA (10 and 1 μg/ml final concentration, respectively), the plates were incubated in 5% CO2 at 37° C. for 24 h. Cell-free supernatant fluids were then collected by centrifugation (6000 rpm, 10 min at 4° C.) and stored at −20° C. until tested for presence of cytokines. All cytokines were quantified by means of PeliKine Compact human ELISA kits (CLB/Sanquin, The Netherlands), based on appropriate and validated sets of monoclonal antibodies.
Whole blood was collected and stimulated with LPS+PHA as described for Experiment 2. […]

TNF-α = assay: LPS+PHA-induced TNF-α secretion in whole blood from healthy subjects (ELISA); assay type: cell-based, human
Method: as §1, with “7” for “8”, “TNF-α” for “IL-10”
FIG. 13 Effect of different purinergic compounds on LPS+PHA-induced TNF-α secretion in whole blood. The whole blood was exposed to 10 μg/ml LPS and 1 μg/ml PHA with the indicated purinergic compounds at the concentration of 300 μM for 24 h. The TNF-α released into the supernatant was analyzed using the ELISA method. Results are expressed in percentage, 100% being the TNF-α release under stimulation by LPS+PHA without addition of a purinergic compound (control). […] The TNF-α release induced by LPS+PHA from whole blood was not inhibited by UTP, UDP or CTP. Data are expressed as the mean values; error bars represent SEM.
as §2
Whole blood was collected and stimulated with LPS+PHA as described for Experiment 2. ATP, dissolved in RPMI 1640 culture medium, was added to the blood at a final concentration of 1-1000 μM. The agonists were added in the same way as ATP, however their stock solutions are prepared in PBS and further diluted in medium. All incubations are performed in duplicate.

[3] = after 10 weekly infusions, 10-15 μg/kg·min

## Nc1ncnc2c1ncn2[C@@H]1O[C@H](COP(=O)(O)OP(=O)(O)OP(=O)(O)O)[C@@H](O)[C@H]1O [ATP, Adenosine 5′-triphosphate]
[1]
  serious side effects grade 3-4 on the WHO Common Toxicity Criteria scale: no serious side effects
[2]; after 10 infusions
  joint swelling and pain: markedly decreased
[2]; [3]
  CRP: 6 mg/L
  DAS score: 3.09
[2]; before ATP
  CRP: 43 mg/L
  DAS score: 5.80
TNF-α/IL-10 ratio
  reduction in the TNF-α/IL-10 ratio: 90%
IL-10
  effect on LPS+PHA-induced IL-10 release: significantly increased
TNF-α; 300 μM, 24 h
  effect of purinergic compound on LPS+PHA-induced TNF-α release: greatest inhibition
TNF-α; LPS-PHA stimulated whole blood, Experiment 4
  effect on inhibiting TNFα and stimulating IL-10 production: more effective
TNF-α; indicated ATP concentrations, 24 h
  effect on LPS+PHA-induced TNF-α release: significantly inhibited
